This note sets out measurements from patent publication US10323041B2, “Bicyclic derivatives, a process for their preparation and pharmaceutical compositions containing them” (LES LABORATOIRES SERVIER, priority 2015, dated 2019).

By IC50 is commonly meant the midpoint of a concentration-inhibition curve.

The target of one assay is Mcl-1 protein (Homo sapiens, UniProt Q07820). As to the kind of experiment: Inhibition of Mcl-1 by the fluorescence polarisation technique. The format is binding. The conditions noted are these: for IC50: read-out: IC50 (M) Mcl-1 FP. The method, boiled down:
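Competitive FP with fluorescein-labelled peptide ligand, 5% DMSO, ~2 h at room temperature, 11-point curves, 4-parameter IC50. Method 1: 1 nM ligand, 5 nM Mcl-1 in HEPES pH 7.4 buffer; Method 2: 10 nM ligand, 10 nM Mcl-1 in phosphate pH 7.4 buffer, 50 μM unlabelled ligand as full-inhibition control.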

A further assay deals with cleaved form of PARP. As to the kind of experiment: Quantification of the cleaved form of PARP in vivo. As to conditions: AMO-1 xenograft in SCID mice; cleaved PARP in tumour lysates, treated / control; intraveinous or oral routes. Also on record: species or system mice (SCID strain). As to the method:
The ability of the compounds of the invention to induce apoptosis, by measuring cleaved PARP levels, is evaluated in a xenograft model of AMO-1 multiple myeloma cells.
1.10^7 AMO-1 cells are grafted sub-cutaneously into immunosuppressed mice (SCID strain). 12 to 14 days after the graft, the animals are treated by intraveinous or oral routes with the various compounds. After treatment, the tumour masses are recovered and lysed, and the cleaved form of PARP is quantified in the tumour lysates.
The quantification is carried out using the “Meso Scale Discovery (MSD) ELISA platform” test, which specifically assays the cleaved form of PARP. It is expressed in the form of an activation factor corresponding to the ratio between the quantity of cleaved PARP in the treated mice divided by the quantity of cleaved PARP in the control mice.

For assay [1], the system named is H929 multiple myeloma tumour line. The assay is described as follows: In vitro cytotoxicity, Microculture Tetrazolium Assay on H929 cells. It counts as cell-based. As to conditions: cell viability, read-out: IC50 (M) MTT H929. The method, then:
The cytotoxicity studies were carried out on the H929 multiple myeloma tumour line.
The cells are distributed onto microplates and exposed to the test compounds for 48 hours. The cell viability is then quantified by a colorimetric assay, the Microculture Tetrazolium Assay (Cancer Res., 1987, 47, 939-942).

Setting [2] is: Method 1 (not underlined) or Method 2 (underlined), underlining not visible, first value where cell prints two.
Where [3] appears, read: Homo sapiens, NCI-H929, exposed for 48 hours.

Where two headings read alike, the source gives them in different places. A value given as a limit tells only on which side of the number the result lay.

Chain of Mcl-1 protein (Q07820 whole entry): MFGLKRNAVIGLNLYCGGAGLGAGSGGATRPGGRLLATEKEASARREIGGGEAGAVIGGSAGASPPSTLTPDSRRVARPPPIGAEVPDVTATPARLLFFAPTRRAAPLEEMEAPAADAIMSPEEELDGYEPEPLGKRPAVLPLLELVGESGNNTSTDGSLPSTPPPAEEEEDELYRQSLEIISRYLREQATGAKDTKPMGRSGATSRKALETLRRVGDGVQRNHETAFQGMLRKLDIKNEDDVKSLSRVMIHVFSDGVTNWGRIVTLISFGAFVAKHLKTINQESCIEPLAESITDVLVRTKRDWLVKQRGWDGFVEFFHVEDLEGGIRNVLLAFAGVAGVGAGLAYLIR

`COc1ccccc1-c1nccc(COc2ccccc2CC(Oc2cccc3sc(-c4ccc(F)cc4)c(-c4ccc(OCCN5CCN(C)CC5)c(Cl)c4C)c23)C(=O)O)n1` (single isomer, unassigned) [Example 53]: the IC50 at Mcl-1 protein (setting [2]) was 2.2e-08 M; in assay [1] (setting [3]), 2.53e-08 M. In the assay on cleaved form of PARP, this compound had a PARP fold of 40.2 fold.
On the same counts, the results for `COc1ccccc1-c1nccc(COc2ccccc2C[C@@H](Oc2ncnc3oc(-c4ccc(F)cc4)c(-c4ccc(OCCN5CCN(C)CC5)c(Cl)c4C)c23)C(=O)O)n1` [Example 1, (2R)-2-{[5-{3-chloro-2-methyl-4-[2-(4-methylpiperazin-1-yl)ethoxy]phenyl}-6-(4-fluorophenyl)furo[2,3-d]pyrimidin-4-yl]oxy}-3-(2-{[2-(2-methoxyphenyl)pyrimidin-4-yl]methoxy}phenyl)propanoic acid] are 3.8e-09 M, 2.41e-08 M and 157.5 fold.
For the compound `CCc1c(-c2c(-c3ccc(F)cc3)oc3ncnc(O[C@H](Cc4ccccc4OCc4ccnc(-c5ccccc5OC)n4)C(=O)O)c23)ccc(OCCN2CCN(C)CC2)c1Cl` [Example 2, (2R)-2-{[5-{3-chloro-2-ethyl-4-[2-(4-methylpiperazin-1-yl)ethoxy]phenyl}-6-(4-fluorophenyl)furo[2,3-d]pyrimidin-4-yl]oxy}-3-(2-{[2-(2-methoxyphenyl)pyrimidin-4-yl]methoxy}phenyl)propanoic acid], the figures for the IC50 (at Mcl-1 protein (setting [2]); in assay [1] (setting [3])) were 6e-09 M and 1.45e-08 M, respectively. The compound further came in with a PARP fold in the assay with cleaved form of PARP of 216.3 fold.
On the same counts, the results for `COc1ccccc1-c1nccc(COc2ccccc2CC(Nc2ncnc3oc(-c4ccc(F)cc4)c(-c4ccc(OCCN5CCN(C)CC5)c(Cl)c4C)c23)C(=O)O)n1` [Example 8, N-[(5Sa)-5-{3-chloro-2-methyl-4-[2-(4-methylpiperazin-1-yl)ethoxy]phenyl}-6-(4-fluorophenyl)furo[2,3-d]pyrimidin-4-yl]-2-{[2-(2-methoxyphenyl)pyrimidin-4-yl]methoxy}-D-phenylalanine] are 6.6e-09 M, 1.78e-08 M and 55.4 fold.
On the same counts, the results for `COc1ccccc1-c1nccc(COc2ccccc2CC(Oc2cc(F)cc3oc(-c4ccc(F)cc4)c(-c4ccc(OCCN5CCN(C)CC5)c(Cl)c4C)c23)C(=O)O)n1` [Example 67, (2R)-2-{[(3Sa)-3-{3-chloro-2-methyl-4-[2-(4-methylpiperazin-1-yl)ethoxy]phenyl}-6-fluoro-2-(4-fluorophenyl)-1-benzofuran-4-yl]oxy}-3-(2-{[2-(2-methoxyphenyl)pyrimidin-4-yl]methoxy}phenyl)propanoic acid] are 1.4e-08 M, 8.36e-08 M and 29.3 fold.
`COc1ccccc1-c1nccc(COc2ccccc2CC(Oc2ccnc3sc(-c4ccc(F)cc4)c(-c4ccc(OCCN5CCN(C)CC5)c(Cl)c4C)c23)C(=O)O)n1` [Example 71, (2R)-2-{[(3Sa)-3-{3-chloro-2-methyl-4-[2-(4-methylpiperazin-1-yl)ethoxy]phenyl}-2-(4-fluorophenyl)thieno[2,3-b]pyridin-4-yl]oxy}-3-(2-{[2-(2-methoxyphenyl)pyrimidin-4-yl]methoxy}phenyl)propanoic acid]: the values for the IC50 (on Mcl-1 protein (setting [2]); in assay [1] (setting [3])) were 5.02e-09 M and 9.08e-09 M, respectively.
`COc1ccccc1-c1nccc(COc2ccccc2C[C@@H](Oc2ncnc3c2c(-c2ccc(OCCN4CCN(C)CC4)c(Cl)c2C)c(-c2ccc(F)cc2)n3C)C(=O)O)n1` [Example 72, (2R)-2-[5-[3-chloro-2-methyl-4-[2-(4-methylpiperazin-1-yl)ethoxy]phenyl]-6-(4-fluorophenyl)-7-methyl-pyrrolo[2,3-d]pyrimidin-4-yl]oxy-3-[2-[[2-(2-methoxyphenyl)pyrimidin-4-yl]methoxy]phenyl]propanoic acid]: the IC50 on Mcl-1 protein (setting [2]) was 1.55e-08 M; in assay [1] (setting [3]) it was 3.2e-08 M. In the assay with cleaved form of PARP, this compound registered a PARP fold of 15.7 fold.
As to `COc1ccccc1-c1nccc(COc2ccccc2CC(Oc2ccnc3sc(-c4ccc(F)cc4)c(-c4ccc(OCCN5CCN(C)CC5)c(Cl)c4C)c23)C(=O)OC(C)OC(=O)N(C)C)n1` [Example 75, 1-[(dimethylcarbamoyl)oxy]ethyl (2R)-2-{[(3Sa)-3-{3-chloro-2-methyl-4-[2-(4-methylpiperazin-1-yl)ethoxy]phenyl}-2-(4-fluorophenyl)thieno[2,3-b]pyridin-4-yl]oxy}-3-(2-{[2-(2-methoxyphenyl)pyrimidin-4-yl]methoxy}phenyl)propanoate], the concentration for half-maximal inhibition (IC50) at Mcl-1 protein (setting [2]) is 5.61e-07 M; in assay [1] (setting [3]), 7.55e-08 M.
As to `CCOC(=O)OC(C)OC(=O)C(Cc1ccccc1OCc1ccnc(-c2ccccc2OC)n1)Oc1ccnc2sc(-c3ccc(F)cc3)c(-c3ccc(OCCN4CCN(C)CC4)c(Cl)c3C)c12` [Example 76, 1-[(ethoxycarbonyl)oxy]ethyl (2R)-2-{[(3Sa)-3-{3-chloro-2-methyl-4-[2-(4-methylpiperazin-1-yl)ethoxy]phenyl}-2-(4-fluorophenyl)thieno[2,3-b]pyridin-4-yl]oxy}-3-(2-{[2-(2-methoxyphenyl)pyrimidin-4-yl]methoxy}phenyl)propanoate], the IC50 at Mcl-1 protein (setting [2]) was found to be 1.34e-07 M; in assay [1] (setting [3]), 1.01e-08 M.
On the same counts, the results for `COc1ccccc1-c1nccc(COc2ccccc2C[C@@H](Nc2ccnc3sc(-c4ccc(F)cc4)c(-c4ccc(OCCN5CCN(C)CC5)c(Cl)c4C)c23)C(=O)O)n1` [Example 84, N-[3-{3-chloro-2-methyl-4-[2-(4-methylpiperazin-1-yl)ethoxy]phenyl}-2-(4-fluorophenyl)thieno[2,3-b]pyridin-4-yl]-2-{[2-(2-methoxyphenyl)pyrimidin-4-yl]methoxy}-D-phenylalanine] are 5.45e-09 M and 1.09e-08 M.
For `COc1ccccc1-c1nccc(COc2ccccc2C[C@@H](Nc2nccc3sc(-c4ccc(F)cc4)c(-c4ccc(OCCN5CCN(C)CC5)c(Cl)c4C)c23)C(=O)O)n1` [Example 86, N-[3-{3-chloro-2-methyl-4-[2-(4-methylpiperazin-1-yl)ethoxy]phenyl}-2-(4-fluorophenyl)thieno[3,2-c]pyridin-4-yl]-2-{[2-(2-methoxyphenyl)pyrimidin-4-yl]methoxy}phenylalanine], the concentration for half-maximal inhibition (IC50) came out at 3.05e-08 M on Mcl-1 protein (setting [2]) and 3.59e-08 M in assay [1] (setting [3]).
Take `COc1ccccc1-c1nccc(COc2ccccc2CC(Oc2nccc3nc(-c4ccc(F)cc4)c(-c4ccc(OCCN5CCN(C)CC5)c(Cl)c4C)n23)C(=O)O)n1` (stereo not shown) [Example 97a, 2-{[(3Sa)-3-{3-chloro-2-methyl-4-[2-(4-methylpiperazin-1-yl)ethoxy]phenyl}-2-(4-fluorophenyl)imidazo[1,2-c]pyrimidin-5-yl]oxy}-3-(2-{[2-(2-methoxyphenyl)pyrimidin-4-yl]methoxy}phenyl)propanoic acid]: at Mcl-1 protein (@ 10 μM test compound, partial inhibitors), the “percentage fluorescence polarization inhibition” value is reported as 55% @ 10 μM. Besides, the IC50 in assay [1] (exposed for 48 hours) was found to be 1.16e-05 M.
Regarding `COc1ccccc1-c1nccc(COc2ccccc2CC(Oc2nccc3nc(-c4ccc(F)cc4)c(-c4ccc(OCCN5CCN(C)CC5)c(Cl)c4C)n23)C(=O)O)n1` (stereo not shown) [Example 97b, 2-{[(3Ra)-3-{3-chloro-2-methyl-4-[2-(4-methylpiperazin-1-yl)ethoxy]phenyl}-2-(4-fluorophenyl)imidazo[1,2-c]pyrimidin-5-yl]oxy}-3-(2-{[2-(2-methoxyphenyl)pyrimidin-4-yl]methoxy}phenyl)propanoic acid], the figures for the half-maximal inhibitory concentration (IC50) (on Mcl-1 protein (setting [2]); in assay [1] (setting [3])) were 4.1e-08 M and 4.59e-07 M, respectively.
As for `COc1ccccc1-c1nccc(COc2ccccc2C[C@@H](Nc2ccnc3nc(-c4ccc(F)cc4)c(-c4ccc(OCCN5CCN(C)CC5)c(Cl)c4C)n23)C(=O)O)n1` [Example 102, N-[3-{3-chloro-2-methyl-4-[2-(4-methylpiperazin-1-yl)ethoxy]phenyl}-2-(4-fluorophenyl)imidazo[1,2-a]pyrimidin-5-yl]-2-{[2-(2-methoxyphenyl)pyrimidin-4-yl]methoxy}-D-phenylalanine], the “IC50 (M) Mcl-1 FP” value on Mcl-1 protein (setting [2]) is recorded as “no curve”. Further, the IC50 in assay [1] (setting [3]) was greater than 3e-05 M.
